Experiment [1] concerns E-cadherin expression in SW620 cells. The experiment can be described thus: E-cadherin expression, in-cell Western (ICW), SW620 cells. Type of experiment: cell-based. The note with it: Homo sapiens; for fold induction at 10 µM: SW-620, 24 h, change in expression level of E-cadherin in response to 10 μM compound, 24 hours, SW620 cells; for EC50: SW-620, inducement of E-cadherin expression in SW620 cells. Put shortly: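 SW620 cells were treated with compound for 24 h in RPMI 1640 (single-point at 10 μM; EC50 also determined), in quadruplicate. After methanol fixation, in-cell Western with anti-E-cadherin and anti-α-tubulin primaries and IRDye 800/700 secondaries. Read on an Odyssey IR imager.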

Experiment [2] relates to E-cadherin expression in H520 cells. In words: E-cadherin expression, in-cell Western (ICW), H520 cells. The experiment is classed as cell-based. The settings on record: Homo sapiens, NCI-H520; for fold induction at 10 µM: change in expression level of E-cadherin in response to 10 μM compound, 24 hours, H520 cells; for EC50: inducement of E-cadherin expression in H520 cells. As to the method: SW620 and H520 cells (5×10^4/100 μL) were seeded in a 96-well plate prior to treatment. Cells were treated with 10 μM concentration of synthesized compound in quadruplicate for 24 hours in RPMI 1640 supplemented medium and 100 μg/mL penicillin-streptomycin. The cells were then fixed with 100% methanol for 20 minutes at 4° C. The wells were then washed 2 times with PBS, permeabilized in 2% bovine serum albumin (BSA) and 0.2% TritonX-100 in PBS for 30 minutes at room temperature with gentle agitation, and blocked in LI-COR blocking buffer for 30 minutes at room temperature with gentle agitation. The cells were then incubated with the following primary antibodies: anti-E-Cadherin (1:500) and anti-α-Tubulin (1:1000) diluted in blocking buffer (1:1 dilution in PBS) for 2 hours at room temperature with gentle agitation. The cells were washed 4 times in PBS-T for 5 minutes each, and then incubated with the following secondary antibodies conjugated to a fluorescent entity: IRDye 800-conjugated goat anti-rabbit IgG (1:1000) and IRDye-700-conjugated goat anti-mouse IgG (1:2000) in blocking buffer (1:1 dilution in PBS) with gentle agitation for 1 h at room temperature. The cells were washed 4 times in PBS-T for 5 minutes each followed by a single wash with PBS. All liquid was removed from the wells and the plates were visualized and analyzed on the Odyssey IR imaging system (LI-COR Biosciences).
The assay was further optimized in the following manner. The cells were washed 2 times with PBS, fixed in 100% methanol at room temperature for 15 minutes, and again washed 2 times with PBS. The cells were then incubated with the following primary antibodies: anti-E-Cadherin (1:200) and anti-α-Tubulin (1:2000) diluted in ice cold 2% bovine serum albumin (BSA) and 0.2% TritonX-100 in PBS for 1 hour at room temperature with gentle agitation. The cells were washed 2 times in PBS and then incubated with the following secondary antibodies conjugated to a fluorescent entity: Licor 800-conjugated goat anti-rabbit IgG (1:2000) and IRDye-700-conjugated goat anti-mouse IgG (1:2000) in ice cold 2% BSA and 0.2% TritonX-100 in PBS with gentle agitation for 45 minutes at room temperature. The wells were washed 2 times in PBS, dried, and analyzed as previously mentioned.
Changes in expression level of E-cadherin in response to 10 μM compound in H520 cells was determined in a cell-based functional assay as described above, and the data are shown in Table IV. The compound number corresponds to the compound numbers used in Table II.
EC50 of inducement of E-cadherin expression in H520 cells was determined in a cell-based functional assay as described above, and the data are shown in Table VI. The compound number corresponds to the compound numbers used in Table II.

The subject of experiment [3] is proximal region of the E-cadherin promoter (Cdh1) in SW620inv cells. In words: ChIP assay at proximal E-cadherin promoter, SW620inv cells. The experiment is classed as cell-based. The settings on record: ChIP (FIG. 8).
The test system of a further experiment is HMEC-1 cells. In words: E-cadherin, VE-cadherin, Vimentin and histone marks in HMEC-1 cells (qPCR, Western blot). The settings on record: after 48 hours of treatment. Type of experiment: cell-based, human. For orientation: Real-time PCR tracks product formation cycle by cycle.

As usually defined, the fold induction is the signal under treatment as a multiple of the control signal. The EC50 is the concentration giving half of the maximal effect. A lower EC50 goes with higher potency in that assay. Consider `O=C(NCCNC(=O)c1cc(-c2ccccc2)on1)c1ccncc1` [Compound 4, N-(2-(isonicotinamido)ethyl)-5-phenylisoxazole-3-carboxamide], for which the results for the fold induction at 10 µM in experiment [1] and in experiment [2] were 2.79 and 2.87, respectively. The EC50 in experiment [1] was 8.8 µM; in experiment [2] it was 5.1 µM.

As for `O=C(NCCNC(=O)c1cc(-c2ccccc2)[nH]n1)c1ccncc1` [Compound 124, N-(2-(5-phenyl-1H-pyrazole-3-carboxamido)ethyl)isonicotinamide], the “Pol II association with the E-cadherin proximal promoter” value in experiment [3] is reported as “did not show any effect”. Besides, the fold induction at 10 µM worked out at 1.29 in experiment [1] and 1.22 in experiment [2].

For `O=C(NCCNC(=O)c1nccs1)c1cc(-c2ccccc2)[nH]n1` [Compound 125, N-(2-(5-phenyl-1H-pyrazole-3-carboxamido)ethyl)thiazole-2-carboxamide], the figures for the fold induction at 10 µM in experiment [1] and in experiment [2] were 1.77 and 1.1, respectively.

As to `O=C(NCCNC(=O)c1nccs1)c1cc(-c2ccccc2)on1` [Compound 5, 5-phenyl-N-(2-(thiazole-2-carboxamido)ethyl)isoxazole-3-carboxamide], the fold induction at 10 µM in experiment [1] was 8.98; in experiment [2] it was 4.22. Further, the EC50 in experiment [1] came out at 4.8 µM.

For the compound `O=C(NCCCNC(=O)c1n[nH]c2ccccc12)c1cc(-c2ccccc2)on1` [Compound 22, N-(3-(1H-indazole-3-carboxamido)propyl)-5-phenylisoxazole-3-carboxamide], the fold induction at 10 µM in experiment [1] worked out at 1.62; in experiment [2] it was 1.88.

Turning to `O=C(Cc1ccccc1O)NCCNC(=O)c1cc(-c2ccccc2)[nH]n1` [Compound 123, N-(2-(2-(2-hydroxyphenyl)acetamido)ethyl)-5-phenyl-1H-pyrazole-3-carboxamide], the figures for the fold induction at 10 µM in experiment [1] and in experiment [2] were 1.37 and 1.24, respectively.

In experiment [1], `O=C(NCCCNC(=O)c1cc(F)ccc1O)c1cc(-c2ccccc2)on1` [Compound 20, N-(3-(5-fluoro-2-hydroxybenzamido)propyl)-5-phenylisoxazole-3-carboxamide] gave a fold induction at 10 µM of 2.43 and an EC50 of 5 µM. In experiment [2], this compound came in with a fold induction at 10 µM of 5.27 and an EC50 of 1.4 µM.

With `O=C(NCCNC(=O)c1cc(Br)ccc1O)c1cc(-c2ccccc2)on1` [Compound 2, N-(2-(5-bromo-2-hydroxybenzamido)ethyl)-5-phenylisoxazole-3-carboxamide], the fold induction at 10 µM in experiment [1] turned out to be 1.18; in experiment [2], 1.14.

Consider `O=C(NCCNC(=O)c1cc(F)ccc1O)c1cc(-c2ccccc2)[nH]n1` [Compound 122, N-(2-(5-fluoro-2-hydroxybenzamido)ethyl)-5-phenyl-1H-pyrazole-3-carboxamide], for which the values for the fold induction at 10 µM in experiment [1] and in experiment [2] were 1.45 and 1.04, respectively.

For the compound `Nc1ncn([C@@H]2O[C@H](CO)[C@@H](O)[C@H]2O)c(=O)n1` [Compound 5-Aza, 5-azacytidine], the “restoring E-cadherin in HMEC-1 cells” value in the experiment with HMEC-1 cells is recorded as “neither TSA nor 5-Aza, nor the combination of these two agents, was effective”.

For `Cc1ccc(C(=O)NCCCNC(=O)c2cc(-c3cccs3)on2)o1` [Compound 77, N-(3-(5-methylfuran-2-carboxamido)propyl)-5-(thiophen-2-yl)isoxazole-3-carboxamide], in experiment [1], the fold induction at 10 µM came out at 2.99.

For `Nc1cccc(C(=O)NCCCNC(=O)c2cc(-c3ccccc3)on2)c1` [Compound 15, N-(3-(3-aminobenzamido)propyl)-5-phenylisoxazole-3-carboxamide], the fold induction at 10 µM in experiment [1] turned out to be 3.94.

The compound `O=C(NCCCNC(=O)c1cccs1)c1cc(-c2cccs2)on1` [Compound 75, 5-(thiophen-2-yl)-N-(3-(thiophene-2-carboxamido)propyl)isoxazole-3-carboxamide] showed a fold induction at 10 µM in experiment [1] of 3.05.

Compound `O=C(NCCCNC(=O)c1ncccc1F)c1cc(-c2cccs2)on1` [Compound 44, N-(3-(3-fluoropicolinamido)propyl)-5-(thiophen-2-yl)isoxazole-3-carboxamide] gave a fold induction at 10 µM in experiment [1] of 3.36.

Regarding `O=C(NCCCNC(=O)c1cc(-c2cccs2)on1)c1cncc(F)c1` [Compound 54, N-(3-(5-fluoronicotinamido)propyl)-5-(thiophen-2-yl)isoxazole-3-carboxamide], the fold induction at 10 µM in experiment [1] came to 2.22.

In turn, `Cc1nc(C(=O)NCCCNC(=O)c2cc(-c3cccs3)on2)no1` [Compound 80, 5-methyl-N-(3-(5-(thiophen-2-yl)isoxazole-3-carboxamido)propyl)-1,2,4-oxadiazole-3-carboxamide] came in with a fold induction at 10 µM in experiment [1] of 2.83.

Turning to `O=C(CCCC[C@@H]1SC[C@@H]2NC(=O)N[C@@H]21)Nc1ccc(C(=O)NCCCNC(=O)c2cc(-c3ccccc3)on2)cc1` [Compound 17, N-(3-(4-(5-((3aS,4S,6aR)-2-oxohexahydro-1H-thieno[3,4-d]imidazol-4-yl)pentanamido)benzamido)propyl)-5-phenylisoxazole-3-carboxamide], the fold induction at 10 µM in experiment [1] was determined as 1.04.

In experiment [1], `O=C(Cc1ccccc1O)NCCNC(=O)c1cc(-c2ccccc2)on1` [Compound 1, N-(2-(2-(2-hydroxyphenyl)acetamido)ethyl)-5-phenylisoxazole-3-carboxamide] returned a fold induction at 10 µM of 3.4 and an EC50 of 3.7 µM. In addition, in experiment [2], the fold induction at 10 µM worked out at 3.51 and the response was half-maximal at 5.6 µM (EC50).

In experiment [1], `O=C(Cc1ccccc1O)NCCCNC(=O)c1cc(-c2ccccc2)on1` [Compound 21, N-(3-(2-(2-hydroxyphenyl)acetamido)propyl)-5-phenylisoxazole-3-carboxamide] yielded a fold induction at 10 µM of 4.92 and an EC50 of 4.97 µM. In experiment [2], this compound showed a fold induction at 10 µM of 5.92 and an EC50 of 1.5 µM.

`O=C(NCCCNC(=O)c1cccc(Br)n1)c1cc(-c2ccccc2)on1` [Compound 62, N-(3-(6-bromopicolinamido)propyl)-5-phenylisoxazole-3-carboxamide] showed a fold induction at 10 µM in experiment [1] of 2.59.

The compound `Nc1ccc(C(=O)NCCCNC(=O)c2cc(-c3ccccc3)on2)cc1O` [Compound 16, N-(3-(4-amino-3-hydroxybenzamido)propyl)-5-phenylisoxazole-3-carboxamide] displayed a fold induction at 10 µM in experiment [1] of 3.72.

In experiment [1], `COc1ccc(C(=O)NCCCNC(=O)c2cc(-c3cccs3)on2)c(OC)n1` [Compound 43, N-(3-(2,6-dimethoxynicotinamido)propyl)-5-(thiophen-2-yl)isoxazole-3-carboxamide] had a fold induction at 10 µM of 1.45.

`O=C(NCCCNC(=O)c1ncccc1F)c1cc(-c2ccccc2)on1` [Compound 61, N-(3-(3-fluoropicolinamido)propyl)-5-phenylisoxazole-3-carboxamide]: the fold induction at 10 µM in experiment [1] turned out to be 2.94.

In experiment [1], `O=C(NCCCNC(=O)c1cnc2ccccn12)c1cc(-c2cccs2)on1` [Compound 73, N-(3-(imidazo[1,2-a]pyridine-3-carboxamido)propyl)-5-(thiophen-2-yl)isoxazole-3-carboxamide] showed a fold induction at 10 µM of 3.04.

In experiment [1], `O=C(NCCCNC(=O)c1occc1-c1ccccc1)c1cc(-c2ccccc2)on1` [Compound 114, 5-phenyl-N-(3-(3-phenylfuran-2-carboxamido)propyl)isoxazole-3-carboxamide] came in with a fold induction at 10 µM of 4.7 and an EC50 of 6.35 µM.

(Values after patent publication US9783510B2, “Small molecule mediated transcriptional induction of E-cadherin” (Vanderbilt University, priority 2014, dated 2017).)
